{"source": "BindingDB's records for doi:10.1074/jbc.M114.559062", "about": "(Case Western Reserve University School of Medicine, 2014)", "key": {"[1]": {"target": "T1, Fatty acid-binding protein 5 (Mus musculus, UniProt Q05816)", "T1 sequence (Q05816 whole entry)": "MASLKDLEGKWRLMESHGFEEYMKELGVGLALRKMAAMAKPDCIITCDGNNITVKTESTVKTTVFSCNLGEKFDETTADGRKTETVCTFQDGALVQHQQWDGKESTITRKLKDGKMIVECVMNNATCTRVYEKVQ", "test": "Fluorescence Competition Assay", "protocol": "(§1) The method entails two steps [Lin et al., Biochemistry, 38:185-190]. In the first step, the Kd for association of FABP5 with the fluorescent lipid probe anilinonaphtalene-8-sulfonic acid (ANS) was measured by fluorescence titrations. Kd values for nonfluorescent ligands were then measured by monitoring their ability to compete with the probe for binding. FABP5 was precomplexed with ANS and titrated with ligands. Ligand binding was followed by monitoring the decrease in fluorescence upon displacement of the probe from the protein."}, "[2]": {"target": "T2, Fatty acid-binding protein 5-ANS (Mus musculus, UniProt Q05816)", "T2 sequence (Q05816 whole entry)": "T1 sequence (Q05816 whole entry)", "test": "Fluorescence Competition Assay", "protocol": "as §1"}}, "note": "pKd: −log10 of the molar value."}
{"smiles": "O=S(=O)(O)c1cccc2cccc(Nc3ccccc3)c12", "note": "[ANS]", "values": [{"measurement": "pKd", "setting": "[1]", "result": 7.15}]}
{"smiles": "CCCCC/C=C\\C/C=C\\C/C=C\\C/C=C\\CCCC(=O)NCCO", "note": "[Arachidonoyl ethanolamide]", "values": [{"measurement": "pKd", "setting": "[2]", "result": 7.00}]}
{"smiles": "CCCCC/C=C\\C/C=C\\C/C=C\\C/C=C\\CCCC(=O)O", "note": "[[1-14C]Arachidonic acid]", "values": [{"measurement": "pKd", "setting": "[2]", "result": 7.38}]}
